According to ChEMBL document CHEMBL1201862, “PubChem BioAssay data set” (2004):
“And” between values parts separate entries of the source, which are not always exact repeats. Equal entries are not always repeated.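 Assay format: 96-well plates, 48-hour exposure. GI50 is the concentration that inhibits growth by half.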 The source made the active and inactive calls. No stated cut-off is given here; in the data, active = GI50 up to about 1.1 µM and inactive = higher.

Key:
Assay in all cases: growth of human tumour cells (NCI), 48 h
NCI/ADR-RES = system: NCI/ADR-RES
UACC-62 = system: UACC-62
A498 = system: A498
BT-549 = system: BT-549
CAKI-1 = system: CAKI-1
COLO 205 = system: COLO 205
DU-145 = system: DU-145
HCC 2998 = system: HCC 2998
HCT-116 = system: HCT-116
HCT-15 = system: HCT-15
HT-29 = system: HT-29
IGROV-1 = system: IGROV-1
K562 = system: K562
KM12 = system: KM12
MCF7 = system: MCF7
MDA-MB-231 = system: MDA-MB-231
MDA-N = system: MDA-N
NCI-H226 = system: NCI-H226
NCI-H23 = system: NCI-H23
NCI-H522 = system: NCI-H522
OVCAR-3 = system: OVCAR-3
OVCAR-5 = system: OVCAR-5
OVCAR-8 = system: OVCAR-8
PC-3 = system: PC-3
RPMI-8226 = system: RPMI-8226
RXF 393 = system: RXF 393
SK-MEL-2 = system: SK-MEL-2
SK-OV-3 = system: SK-OV-3
SN12C = system: SN12C
SNB-19 = system: SNB-19
SNB-75 = system: SNB-75
SR = system: SR
T47D = system: T47D
U-251 = system: U-251
UO-31 = system: UO-31
786-0 = system: 786-0
A549 = system: A549
ACHN = system: ACHN
CCRF-CEM = system: CCRF-CEM
EKVX = system: EKVX
HL-60 = system: HL-60
HOP-92 = system: HOP-92
LOX IMVI = system: LOX IMVI
M14 = system: M14
MDA-MB-435 = system: MDA-MB-435
MOLT-4 = system: MOLT-4
Malme-3M = system: Malme-3M
OVCAR-4 = system: OVCAR-4
SF-268 = system: SF-268
SF-539 = system: SF-539
SK-MEL-28 = system: SK-MEL-28
SK-MEL-5 = system: SK-MEL-5
SW-620 = system: SW-620
HOP-62 = system: HOP-62
NCI-H460 = system: NCI-H460
SF-295 = system: SF-295
TK-10 = system: TK-10
UACC-257 = system: UACC-257

O=C1N/C(=N/N=C\C(O)C(O)C(O)C(O)CO)N/C1=C/c1ccccc1 (stereo not drawn)
GI50 (NCI/ADR-RES): > 100 µM (inactive) and 67 µM (inactive)
GI50 (UACC-62): > 100 µM (inactive)

COC(=O)C(Cc1ccccc1)NC(=O)C(CNC(=O)OCc1ccccc1)C(=O)OCc1ccccc1 (stereo not drawn)
GI50 (A498): > 100 µM (inactive)
GI50 (BT-549): > 100 µM (inactive)
GI50 (CAKI-1): 48.6 µM (inactive) and 64 µM (inactive)
GI50 (COLO 205): 51.1 µM (inactive)
GI50 (DU-145): > 100 µM (inactive)
GI50 (HCC 2998): > 100 µM (inactive)
GI50 (HCT-116): 70.3 µM (inactive) and 71 µM (inactive)
GI50 (HCT-15): > 100 µM
GI50 (HT-29): > 100 µM (inactive)
GI50 (IGROV-1): 98.4 µM (inactive) and 60.3 µM (inactive)
GI50 (K562): > 100 µM (inactive)
GI50 (KM12): > 100 µM (inactive)
GI50 (MCF7): 30.2 µM (inactive) and 48.2 µM (inactive)
GI50 (MDA-MB-231): 38.7 µM (inactive) and 23 µM (inactive)
GI50 (MDA-N): > 100 µM (inactive)
GI50 (NCI-H226): 54.8 µM (inactive) and 57.5 µM (inactive)
GI50 (NCI-H23): > 100 µM (inactive)
GI50 (NCI-H522): 29.4 µM (inactive) and 32.2 µM (inactive)
GI50 (NCI/ADR-RES): > 100 µM (inactive)
GI50 (OVCAR-3): 36.6 µM (inactive) and 32.3 µM (inactive)
GI50 (OVCAR-5): > 100 µM (inactive)
GI50 (OVCAR-8): > 100 µM (inactive)
GI50 (PC-3): 58.3 µM (inactive)
GI50 (RPMI-8226): > 100 µM (inactive)
GI50 (RXF 393): 13.2 µM (inactive)
GI50 (SK-MEL-2): > 100 µM (inactive) and 86.5 µM (inactive)
GI50 (SK-OV-3): 59.7 µM (inactive)
GI50 (SN12C): > 100 µM (inactive)
GI50 (SNB-19): > 100 µM (inactive)
GI50 (SNB-75): 42.6 µM (inactive) and 21.8 µM (inactive)
GI50 (SR): > 100 µM (inactive) and 56.1 µM (inactive)
GI50 (T47D): 79.6 µM (inactive) and 47.8 µM (inactive)
GI50 (U-251): 31.3 µM (inactive) and 46.7 µM (inactive)
GI50 (UO-31): > 100 µM (inactive) and 95.5 µM (inactive)

COc1cc(NC(C)=O)ccc1C(=O)NN1C(=O)C(Cl)C1c1ccco1 (stereo not drawn)
GI50 (786-0): > 100 µM (inactive)
GI50 (A498): > 100 µM (inactive)
GI50 (A549): 92.5 µM (inactive)
GI50 (ACHN): 86.3 µM (inactive)
GI50 (BT-549): > 100 µM (inactive)
GI50 (CAKI-1): 88.9 µM (inactive)
GI50 (CCRF-CEM): 65.3 µM (inactive)
GI50 (COLO 205): 61.8 µM (inactive)
GI50 (DU-145): > 100 µM (inactive)
GI50 (EKVX): > 100 µM (inactive)
GI50 (HCT-116): > 100 µM (inactive)
GI50 (HCT-15): > 100 µM
GI50 (HL-60): 41.7 µM (inactive)
GI50 (HOP-92): > 100 µM (inactive)
GI50 (HT-29): > 100 µM (inactive)
GI50 (IGROV-1): 80.5 µM (inactive)
GI50 (K562): > 100 µM (inactive)
GI50 (KM12): > 100 µM (inactive)
GI50 (LOX IMVI): 75.2 µM (inactive)
GI50 (M14): > 100 µM (inactive)
GI50 (MCF7): 58.3 µM (inactive)
GI50 (MDA-MB-435): > 100 µM (inactive)
GI50 (MDA-N): > 100 µM (inactive)
GI50 (MOLT-4): 31.9 µM (inactive)
GI50 (Malme-3M): > 100 µM (inactive)
GI50 (NCI-H226): 44.7 µM (inactive)
GI50 (NCI-H23): > 100 µM (inactive)
GI50 (NCI-H522): > 100 µM (inactive)
GI50 (NCI/ADR-RES): > 100 µM (inactive)
GI50 (OVCAR-3): > 100 µM (inactive)
GI50 (OVCAR-4): > 100 µM (inactive)
GI50 (OVCAR-5): > 100 µM (inactive)
GI50 (OVCAR-8): 87.3 µM (inactive)
GI50 (PC-3): > 100 µM (inactive)
GI50 (RPMI-8226): > 100 µM (inactive)
GI50 (RXF 393): > 100 µM (inactive)
GI50 (SF-268): > 100 µM (inactive)
GI50 (SF-539): > 100 µM (inactive)
GI50 (SK-MEL-28): > 100 µM (inactive)
GI50 (SK-MEL-2): > 100 µM (inactive)
GI50 (SK-MEL-5): 76.4 µM (inactive)
GI50 (SN12C): > 100 µM (inactive)
GI50 (SNB-19): > 100 µM (inactive)
GI50 (SNB-75): > 100 µM (inactive)
GI50 (SR): 36.6 µM (inactive)
GI50 (SW-620): > 100 µM (inactive)
GI50 (T47D): > 100 µM (inactive)
GI50 (UACC-62): > 100 µM (inactive)
GI50 (UO-31): > 100 µM (inactive)

CCOP(=O)(/C=C/n1ccc(=O)[nH]c1=O)OCC
GI50 (786-0): > 100 µM (inactive)
GI50 (A498): > 100 µM (inactive)
GI50 (A549): > 100 µM (inactive)
GI50 (ACHN): > 100 µM (inactive)
GI50 (BT-549): > 100 µM (inactive)
GI50 (CAKI-1): > 100 µM (inactive)
GI50 (CCRF-CEM): > 100 µM (inactive)
GI50 (COLO 205): > 100 µM (inactive)
GI50 (DU-145): > 100 µM (inactive)
GI50 (EKVX): > 100 µM (inactive)
GI50 (HCT-116): > 100 µM (inactive)
GI50 (HCT-15): > 100 µM
GI50 (HL-60): > 100 µM (inactive)
GI50 (HOP-62): > 100 µM (inactive)
GI50 (HT-29): > 100 µM (inactive)
GI50 (IGROV-1): > 100 µM (inactive)
GI50 (K562): > 100 µM (inactive)
GI50 (KM12): > 100 µM (inactive)
GI50 (LOX IMVI): > 100 µM (inactive)
GI50 (M14): > 100 µM (inactive)
GI50 (MCF7): > 100 µM (inactive)
GI50 (MDA-MB-231): > 100 µM (inactive)
GI50 (MDA-MB-435): > 100 µM (inactive)
GI50 (MDA-N): > 100 µM (inactive)
GI50 (MOLT-4): > 100 µM (inactive)
GI50 (NCI-H226): > 100 µM (inactive)
GI50 (NCI-H23): > 100 µM (inactive)
GI50 (NCI-H460): > 100 µM (inactive)
GI50 (NCI-H522): > 100 µM (inactive)
GI50 (NCI/ADR-RES): > 100 µM (inactive)
GI50 (OVCAR-3): > 100 µM (inactive)
GI50 (OVCAR-4): > 100 µM (inactive)
GI50 (OVCAR-5): > 100 µM (inactive)
GI50 (OVCAR-8): > 100 µM (inactive)
GI50 (PC-3): > 100 µM (inactive)
GI50 (RPMI-8226): > 100 µM (inactive)
GI50 (RXF 393): > 100 µM (inactive)
GI50 (SF-268): > 100 µM (inactive)
GI50 (SF-295): > 100 µM (inactive)
GI50 (SF-539): > 100 µM (inactive)
GI50 (SK-MEL-28): > 100 µM (inactive)
GI50 (SK-MEL-2): > 100 µM (inactive)
GI50 (SK-MEL-5): > 100 µM (inactive)
GI50 (SK-OV-3): > 100 µM (inactive)
GI50 (SN12C): > 100 µM (inactive)
GI50 (SNB-19): > 100 µM (inactive)
GI50 (SNB-75): > 100 µM (inactive)
GI50 (SW-620): > 100 µM (inactive)
GI50 (T47D): > 100 µM (inactive)
GI50 (TK-10): > 100 µM (inactive)
GI50 (U-251): > 100 µM (inactive)
GI50 (UACC-257): > 100 µM (inactive)
GI50 (UACC-62): > 100 µM (inactive)
